{"source": "patent US20170129915A1", "about": "“THERAPEUTIC AGENT FOR DISEASES ASSOCIATED WITH NERVE AXON DYSFUNCTION, INCLUDING THERAPEUTIC AGENT FOR ALZHEIMER'S DISEASE” (Resilio Company Limited, priority 2014, published 2017)", "key": {"normal mice (ddY) [1]": {"test_system": "normal mice (ddY)", "test": "Object location memory test in normal mice (Reference Test 2)", "assay_type": "in vivo", "details": "10 μmol/kg·day, 5 days, ddY male 6 weeks, interval 48 hours", "procedure": "ddY Mice were obtained from Japan SLC (Hamamatsu, Japan) In the Examples below, 6-week-old male ddY mice were used as normal mice. All mice were housed with free access to food and water and were kept in a controlled environment at 22±2° C., 50±5% humidity, and 12-h light/dark cycle starting at 7:00 am.\nTesting was carried out in a dimly illuminated room (about 100 lx). An appropriate time interval between a training session and a test session was set based on the results of a preliminary test using another group of mice. The object location memory test utilizes animals' habit of showing interest in a novel object. The two opposite walls of a four-walled open-field box for the test had wall coverings with a distinct pattern. […] In the test session, one of the objects was moved to a different location, and the mice were allowed to explore freely for 10 minutes. The increase of the number of times a mouse preferentially explored the identical but relocated object was used as an index of the location memory. That is, the test session determines whether a mouse remembers the previous exposure to an object in the training session. In the Examples below, the ratio (%) of the number of times a mouse explored the object after relocation to the total exploration time was calculated as a preference index. […]"}, "normal mice (ddY) [2]": {"test_system": "normal mice (ddY)", "test": "Object recognition memory test in normal mice", "assay_type": "in vivo", "details": "Example 12: suspension in sesame oil, oral, 0.1 μmol/kg·day, 4 days; ddY male and female 9 weeks; interval 48 hours; FIG. 10", "procedure": "[…] All mice were housed with free access to food and water and were kept in a controlled environment at 22±2° C., 50±5% humidity, and 12-h light/dark cycle starting at 7:00 am.\nThe next day of the measurement of spontaneous motor activity, an object recognition memory test was performed as described in Joyashiki, E. et al., Int J Neurosci, 121, 181-190, 2011 and Tohda, C. et al., Int J Neurosci, 121, 641-648, 2011, reported by the inventors and others. Testing was carried out in a dimly illuminated room (about 100 lx). An appropriate time interval between a training session and a test session was set based on the results of a preliminary test using another group of mice. The object recognition memory test utilizes animals' habit of showing interest in a novel object. The inner walls of the open-field box for the test had no marks. In the training session, two identical objects were placed in the field, and mice were allowed to explore freely for 10 minutes. In the test session, the location of the objects was not changed, but one of the objects was replaced with a novel object, and the mice were allowed to explore freely for 10 minutes. […] In the Examples below, the ratio (%) of the number of times a mouse explored the novel object to the total exploration time was calculated as a preference index. […]"}, "normal or AD model mice": {"test_system": "normal or AD model mice", "details": "intraperitoneal administration; cited from earlier work"}, "[3]": {"test_system": "spinal cord injury (SCI) model mice", "test": "Evaluation of hindlimb motor function based on BMS and TMS", "assay_type": "in vivo", "details": "suspension in sesame oil, oral once a day, 0.1 μmol/kg·day, 14 days, vs sesame oil alone, FIGS. 4A and 4B", "procedure": "Contusion injury was induced in 8-week-old female ddY mice (SLC) by the following procedure to give spinal cord injury (SCI) model mice. The ddY mice were maintained with free access to food and water in a controlled environment (22±2° C., 50±5% humidity, 12-h light/dark cycle starting at 7:00 am) Contusion injury was induced by exposing the lumbar vertebrae of each mouse in accordance with a conventional procedure, then placing the mouse in a stereotaxic apparatus (Narishige), and dropping a 6.5-g weight onto the first lumbar vertebrae (L1) from a height of 2 cm once. The mouse was then subjected to surgical procedures such as suture in a conventional manner. One hour after the induction of the contusion injury, the mice were randomly selected and divided into test groups and were subjected to the administration test described later in Example 10 and Comparative Example 5.\nThe locomotion behavior in the open field was evaluated using the Basso Mouse Scale (BMS) (see, for example, Engesser-Cesar C, Anderson A J, Basso D M et al., (2005), Voluntary wheel running improves recovery from a moderate spinal cord injury, J Neurotrauma 22: 157-171), which was a general standard for the evaluation of the hindlimb motor function of spinal cord injury model mice, and a 0-30-point Toyama Mouse Scale (TMS), which was a modified BMS established by the inventors for better test accuracy. […]"}}}
{"smiles": "C[C@@H]1CC[C@@]2(OC1)O[C@H]1C[C@H]3[C@@H]4CC=C5C[C@@H](O)CC[C@]5(C)[C@H]4CC[C@]3(C)[C@H]1[C@@H]2C", "note": "[diosgenin, Diosgenin]", "values": [{"measurement": "memory enhancing effect, object location memory test", "setting": "normal mice (ddY) [1]; Reference Example 1: dissolved in aqueous solvent (ethanol/5% glucose), oral, FIG. 6A", "result": "no memory enhancing effect"}, {"measurement": "memory enhancing effect, object location memory test", "setting": "normal mice (ddY) [1]; Reference Example 2: dissolved in aqueous solvent, intraperitoneal, FIG. 6B", "result": "a significant memory enhancing effect"}, {"measurement": "object recognition memory", "setting": "normal mice (ddY) [2]", "result": "a significant enhancement of the object recognition memory"}, {"measurement": "memory", "setting": "normal or AD model mice", "result": "enhanced the memory"}]}
{"smiles": "C[C@@H]1CC[C@@]2(OC1)O[C@H]1C[C@H]3[C@@H]4CC=C5C[C@@H](F)CC[C@]5(C)[C@H]4CC[C@]3(C)[C@H]1[C@@H]2C", "note": "[Dios-F, (3β,25R)-3-fluorospirost-5-ene]", "values": [{"measurement": "hindlimb motor function (BMS and TMS scores)", "setting": "[3]", "result": "significantly improved"}]}
